Measurements from patent US20080063601A1, “Compositions and methods relating to polycystic kidney disease” (priority 2004, published 2008).
Read-outs that look alike come from different tables or passages of the source.

Tests used:
NFκB transactivation = experiment: κB-luciferase reporter assay of TNF-α induced NFκB transactivation in HeLa cells; type: cell-based; conditions: for inhibition at 0.1 µM: Homo sapiens
Procedure: Having established that triptolide induced cell death is dependent upon free calcium concentration, Applicant next determined whether this was also a requirement for the inhibition of NFκB transcription. HeLa cells were transiently transfected with the κB-luciferase reporter construct for 8 hours before being washed and then cultured in the presence or absence of calcium containing medium for 16 hours. Triptolide (100 nM) was pre-incubated with cells for 1 hour before addition of 15 ng/ml of TNF-α for 4 hours.
As an additional experiment, transcriptional activity was also assessed by site-directed calcium buffering. HeLa cells were co-transfected with the κB-luciferase plasmid as well as one of the following constructs: GFP empty vector, NES-PV-GFP, or NLS-PV-GFP and proper GFP localization was confirmed. […]
NFκB transactivation was examined using the κB-luciferase reporter construct. […] Cells were assessed for NFκB driven luciferase expression after an additional five hours of incubation, at which time TNF-α had induced transcriptional activity by approximately 15-fold in control cells. […] The results thus far support a divergence of triptolide-mediated functions: the pathway regulating growth arrest/death is more sensitive to triptolide and calcium than the mechanism leading to transcriptional repression of NFκB.
A triple κB promoter-Luciferase reporter construct was a gift of Sankar Ghosh (Yale University). […] The transfection efficiency of HeLa was determined to be 80-90%, and all samples were normalized to protein concentration. Luciferase assays were performed using the Firefly luciferase kit as per manufacturer's protocol (Promega) and results obtained on the Wallac Victor2 1420 Multilabel Counter (Perkin Elmer).

HeLa cells [1] = experiment: in vitro; type: cell-based; conditions: HeLa, 100 nM
Text: (§1) To investigate further the role of calcium in triptolide function Applicant utilized a system to buffer intracellular calcium levels. Various GFP-parvalbumin (PV) fusion proteins can be specifically localized to either the nucleus or the cytoplasm through a nuclear localization or exclusion signal (NLS or NES, respectively) (Pusl, et al., 2002, J Biol Chem 277, 27517-27527). Parvalbumin has two EF-hand calcium binding domains and can efficiently reduce the availability of free calcium in the cell (Pauls, et al., 1996, Biochim Biophys Acta 1306, 39-54). HeLa cells were transiently transfected with the GFP vector control, NES-PV-GFP, or NLS-PV-GFP in calcium containing media and efficient expression of each construct was determined by GFP localization (FIG. 6A). Normal cell growth was first assessed throughout 48 hours with each of the constructs. […] For triptolide experiments, cells were transfected and allowed to express the construct for 24 hours before the addition of 100 nM triptolide. After 24 and 48 hours of treatment, cells were assessed for viability. […] Since the parvalbumin buffering experiments are done in the presence of extracellular calcium, the cell can operate normally in that intracellular calcium stores may be refilled. It is reasonable to expect then if calcium homeostasis is being affected (i.e., cytosolic calcium levels increase) by triptolide, then parvalbumin would eventually reach a saturation point. This might explain why the rescue from apoptosis is transient through the 24 hour time point but is lost by 48 hours.
(§2) All parvalbumin-GFP constructs and control vectors (Pusl, et al., 2002, J Biol Chem 277, 27517-27527) were a gift of Anton Bennett (Yale University). Hela cells were plated out on 6- or 12-well plates at a density of 5×10^5 or 1×10^5, respectively. […] Cell viability was assessed at 24 and 48 hours post triptolide addition by morphology and trypan blue dye exclusion.

in vitro = type: cell-based; conditions: human
Text: as §1, §2

HeLa cells [2] = experiment: [3H]-triptolide competition binding in intact HeLa cells
Procedure: To gain insight into triptolide's mechanism of action Applicant sought to determine its specific binding activity utilizing a system employing [^3H]-triptolide. In addition to competition with 1 μM or 10 μM unlabeled triptolide, Applicant also measured the binding affinities of triptolide analogs (FIG. 3A). These analogs have been previously described and differ structurally from triptolide in the hydrolysis of the 12,13 epoxide (2), and formation of the ketone at the C-14 hydroxyl (3) (FIG. 3A). […] The effective interaction of these analogs with a presumed triptolide binding entity led us to their use in subsequent experiments addressing the mode of triptolide's biological functions.
Labeling studies were performed by the addition of approximately 30 nM [^3H]-triptolide directly into the culture media for one hour at 37° C. For cold competition studies, 1 μM triptolide was incubated with the cells for one hour before or after the addition of [^3H]-triptolide. Triptolide analog studies followed a similar protocol where concentrations used for competition were either 1 or 10 μM added before [^3H]-triptolide. Medium was removed and cells were washed 3× in cold PBS. Total cell lysates were prepared (150 mM NaCl, 50 mM Tris-HCl pH 7.4, 1 mM EDTA, 1% Triton X-100, and Complete™ protease inhibitors (Roche)) and protein was quantitated before measuring the [^3H]-triptolide binding activity via liquid scintillation.

In the case of CC(C)[C@]12O[C@H]1[C@@H]1O[C@]13[C@]1(O[C@H]1C[C@H]1C4=C(CC[C@@]13C)C(=O)OC4)[C@@H]2O [triptolide], the “inhibition of TNF-α driven transcriptional activity of NFκB” value (NFκB transactivation; 10 nM, 1 h pre-treatment + 5 h TNF-α) was “did not inhibit”, the “luciferase induction remaining with compound + TNF-α” value (NFκB transactivation; 10 nM, after 24 hours) was > 20 fold and the “inhibition of TNF-α driven transcriptional activity of NFκB” value (NFκB transactivation; 25 nM, 1 h pre-treatment + 5 h TNF-α) was “did not inhibit”. For the same molecule, the “suppression of TNF-α driven NFκB activity” value (NFκB transactivation; 50 nM, 1 h pre-treatment + 5 h TNF-α) was 20%, the “suppression of NFκB transactivation with site-directed calcium buffering” value (NFκB transactivation; 100 nM, GFP vector, NES-PV-GFP or NLS-PV-GFP) was “retained the ability to suppress NFκB transactivation” and the “inhibition of TNF-α induced NFκB transactivation” value (NFκB transactivation; 100 nM, presence and absence of calcium) was “effectively inhibited”. For the same molecule, the “NFκB activity at higher concentration” value (NFκB transactivation; 1 or 10 μM, 5 hours with TNF-α) was “attenuated further”, the inhibition at 0.1 µM (NFκB transactivation; 0.1 μM, 5 hours with TNF-α, read-out: NFκB inhibition) was > 60% and the inhibition at 0.1 µM (NFκB transactivation; 100 nM, 1 h pre-treatment + 5 h TNF-α, read-out: inhibition of TNF-α driven NFκB activity (average)) was 60%. The “cell death in all transfection conditions” value (HeLa cells [1]; by 48 hours) was “complete cell death”, the apoptosis (HeLa cells [1]; cytosolic parvalbumin (NES-PV-GFP), 24 hours) was 15-20% and the cytotoxicity at 24 h, 0.1 µM (in vitro) was 50%. For the same molecule, the “nature of triptolide binding (out-competed by subsequent excess unlabeled triptolide)” value (HeLa cells [2]; 1 μM cold triptolide after [3H]-triptolide) was “reversible” and the “displacement of / competition for [3H]-triptolide binding” value (HeLa cells [2]; 1 or 10 μM unlabeled competitor for 1 h before approx. 30 nM [3H]-triptolide for 1 h) was “significantly competed”.
